The values that follow come from patent US10927178B2, “Anti-CXCR4 antibodies and antibody-drug conjugates” (PFIZER INC., priority 2013, dated 2021).

In one assay the test system is Ramos cells. Put plainly: Cell-death induction in Ramos cells (Annexin V/PI). Format: cell-based, human. Particulars: positive control, 24 hrs, untreated cells approximately 30%. The procedure:
Anti-CXCR4 antibodies were examined for the ability to induce cell-death in the human Non-Hodgkin's Lymphoma Ramos cell line. Cells were cultured to sub-confluency in RPMI 1640 media containing 10% fetal bovine serum and […] Glutamine at 37° C. in a CO2 incubator. Cells were seeded in growth media in a 48-well plates at 2.5×10^6 cells/mL. Anti-CXCR4 antibodies, diluted in PBS to concentrations indicated, were added to the cells and incubated for 24 hrs at 37° C. Cell-death was measured by Annexin V-PE and propidium iodide (PI) fluorescent signal measured in a LSRII Flow Cytometer (BD Biosciences). Total cell-death was determined by adding the Annexin V+/PI+(late) population with the Annexin V+/PI-(early) population.
The Fab is a single chain antibody (monovalent) and contains the immunoglobulin variable regions which are part of the antigen-binding site and the first immunoglogulin constant region. This fragment was obtained by digestion of the 3G10 antibody with the proteolytic enzyme papain. The F(ab′)2 was generated by pepsin digestion to remove most of the Fc region while leaving intact some of the hinge region. F(ab′)2 fragments have two antigen-binding Fab portions linked together by disulfide bonds, and therefore are bivalent.

For another assay, the system named is JVM-13-Luc cells. Nature of the assay: Systemic JVM-13-Luc CLL model. Format: in vivo, mouse. Particulars: 10 mg/kg s.c. once a week. The procedure:
Anti-tumor activity of CXCR4 antibody was further investigated in a disseminated intravenous Chronic Lymphocytic Leukemia (CLL) model. The human JVM-13 tumor cell line stably transfected to express the luciferase gene was cultured at 37° C. in a 5% CO2 incubator in RPMI 1640 media containing 10% fetal bovine serum and […] Puromycin. The model was established by injecting 1×10^6 JVM-13-Luc cells into female 6-8 week old SCID Beige mice via tail vein. 21 days post-cell implantation mice were assigned into treatment groups (10 animals per group) based on bioluminescence (BLI) reading. […] Rituximab, an anti-CD20 Ab, approved for treatment of CLL patients, was used as positive control. Rituximab was dosed at 10 mg/kg in a solution of sterile PBS once a week, s.c. Tumor burden was assessed using Xenogen IVIS 200 imaging system. Mice were imaged every 7 days in a ventral position and whole body bioluminescence was determined using Xenogen Living Image software. When mice began to show hind limb paralysis or reached other humane endpoints they were euthanized. Both tumor burden (by bioluminescence) and survival were evaluated as endpoints.

For the compound `CN[C@@H]1C[C@H]2O[C@@](C)([C@@H]1OC)n1c3ccccc3c3c4c(c5c6ccccc6n2c5c31)C(=O)NC4` [Staurosporin, reference compound], the cell-death result in the assay with Ramos cells is “approximately 60%”.

On to “Rituximab: anti-CD20 Ab, approved for treatment of CLL patients, used as positive control [reference compound]”, for which the “tumor burden (luminescence) compared to isotype control antibody” value in the assay on JVM-13-Luc cells (from 21 days post-implantation) is “significantly reduced tumor burden”. In the assay with JVM-13-Luc cells (isotype control 32.5 days), this compound had a median survival of 45 days. The “survival compared to isotype control Ab” value with JVM-13-Luc cells (p<0.0001) was “Significant increase in survival”.
